According to US20130059879A1, “Small Molecule Inhibitors of PFKFB3 and Glycolytic Flux and Their Methods of Use as Anti-Cancer Therapeutics” (UNIVERSITY OF LOUISVILLE RESEARCH FOUNDATION, INC., priority 2010, published 2013):
≈ marks a conversion by molar mass, not a printed value.

Target: T1, PFKFB3 (Homo sapiens, UniProt Q16875)
T1 construct: GST
Experiment: Inhibition of recombinant PFKFB3 kinase activity (ADP Glow assay)
Type: biochemical
Conditions: 250 nM analog concentration; read-out: % Inhibition of PFKFB3 Enzymatic Activity
Description: PFKFB3 was prepared by expression in E. coli and purified by GST column and column chromatography. […] The recombinant protein was pure and active as determined by the results of a kinase activity assay commercially available (such as ADP Glow® assay, […]). The same assay was used to determine the inhibition of the protein and the results are shown in Table 5 below (IC50 values or percent inhibition at a fixed concentration). Results confirmed that the compounds of the invention have low nanomolar IC50 values, interacting with PFKFB3 and inhibiting its enzymatic activity.

T1 sequence (Q16875 whole entry, species assumed): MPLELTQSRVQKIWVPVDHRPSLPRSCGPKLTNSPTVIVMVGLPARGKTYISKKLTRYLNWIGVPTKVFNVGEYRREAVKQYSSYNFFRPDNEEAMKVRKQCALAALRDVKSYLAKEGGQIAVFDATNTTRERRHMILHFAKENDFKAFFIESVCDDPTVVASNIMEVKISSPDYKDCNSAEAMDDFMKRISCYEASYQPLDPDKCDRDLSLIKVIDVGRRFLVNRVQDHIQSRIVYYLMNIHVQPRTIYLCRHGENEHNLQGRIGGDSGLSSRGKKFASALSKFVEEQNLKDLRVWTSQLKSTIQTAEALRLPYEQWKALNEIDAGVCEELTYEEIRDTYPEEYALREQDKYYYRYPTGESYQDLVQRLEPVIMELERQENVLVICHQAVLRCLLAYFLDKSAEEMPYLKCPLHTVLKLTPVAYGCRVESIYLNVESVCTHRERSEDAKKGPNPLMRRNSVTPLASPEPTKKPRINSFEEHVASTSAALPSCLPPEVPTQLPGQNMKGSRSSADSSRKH

Row | inhibition at 0.25 µM [%] | SMILES
1 | 0 | O=C(c1ccc(O)cc1)c1cc2c(ccc3ccccc32)[nH]1 [ACT-PFK-100, (3H-Benzo[e]indol-2-yl)-(4-hydroxy-phenyl)-methanone]
2 | 54.3 | O=C(O)c1ccc(C(=O)c2cc3c(ccc4ccccc43)[nH]2)cc1 [ACT-PFK-111, 4-(3H-Benzo[e]indole-2-carbonyl)-benzoic acid]
3 | 19.4 | Cc1ccc(C(=O)c2cc3c(ccc4ccccc43)[nH]2)cc1 [ACT-PFK-123, (3H-Benzo[e]indol-2-yl)-p-tolyl-methanone]

Tested on: Jurkat cells
Experiment: Inhibition of 14C-2-deoxyglucose uptake
Type: cell-based
Conditions: Homo sapiens, 3 hours
Description: Inhibition of PFKFB3 results in inhibiting glycolysis. Several feedback or feedforward activation and inhibition mechanisms exist so that, by a feedback mechanism, inhibiting the activity of PFKFB3 may inhibit glucose uptake by cells. An assay was developed to determine if there was inhibition of glucose uptake following exposure to the compounds on the invention. Briefly, Jurkat cells were plated at 1×10^5/mL in RPM′ 1640 supplemented with 10% fetal bovine serum and 50 μg/mL gentamicin sulfate. Cells were immediately treated with vehicle or 5 μmol/L of the compound of the invention for 3 hours and subsequently placed in glucose-free RPMI 1640 for 30 min. ^14C-2-deoxyglucose (0.25 μCi/mL; Perkin Elmer) was added for an additional 60 min and cells were then washed three with ice-cold RPMI 1640 containing no glucose. Cell lysates were collected in 500 μL of 0.1% SDS, and scintillation counts (counts/min) were measured on 400 μL of lysate. Counts were normalized to protein concentration.

Row | SMILES | inhibition at 5 µM [%]
4 | COc1ccccc1C(=O)c1cc2c(ccc3ccccc32)[nH]1 [ACT-PFK-098, (3H-Benzo[e]indol-2-yl)-(2-methoxy-phenyl)-methanone] | 25
5 | COc1cc(C(=O)c2cc3c(ccc4ccccc43)[nH]2)ccc1OCc1ccccc1 [ACT-PFK-109, (3H-Benzo[e]indol-2-yl)-(4-benzyloxy-3-methoxy-phenyl)-methanone] | 42

Tested on: NCI-H82
Experiment: Cancer cell proliferation, Alamar Blue assay, 72 hours
Type: cell-based
Conditions: Homo sapiens, NCI-H82, read-out: IC50 NCl-H82
Description: (§1) The ability of the compounds described herein to kill or inhibit the proliferation of cancer cells was measured using either the MTT assay, or the Alamar Blue assay, or the Cell Titer Glow® assay using 48 or 72 hours exposure. […] The procedures are briefly described below. Cells of the desired tumor cell line were plated at 2×10^5 cells/ml in 96 well plates. Twice the indicated concentrations of the compounds of the invention were added to cells the following day in an equal volume of media. 72 hours later, cells were lysed and subjected to ATP determination using the CellTiter Glo-Luminescent Cell Viability Assay kit (Promega, Madison, Wis.). Experiments were done in triplicate. When using the MTT assay or the Alamar blue assay, the experimental conditions are essentially similar; at the end of the incubation period, 20 microliters of the MTT solution is added per well and the samples are incubated for an additional four hours, rinsed, and the absorbance at 570 nm measured. […] Table 2 lists the IC50 values for the compounds of the invention in several cell lines including Jurkat, Calu-6, NCI-H82, U937, HCT-116, and MDA-MB-231 cancer cell lines.

Row | IC50 [µM] | SMILES
6 | 0.21 | COc1ccccc1C(=O)c1cc2c(ccc3ccccc32)[nH]1 [ACT-PFK-098, (3H-Benzo[e]indol-2-yl)-(2-methoxy-phenyl)-methanone]
7 | > 100 | COc1cc(C(=O)c2cc3c(ccc4ccccc43)[nH]2)ccc1OCc1ccccc1 [ACT-PFK-109, (3H-Benzo[e]indol-2-yl)-(4-benzyloxy-3-methoxy-phenyl)-methanone]
8 | 40.2 | O=C(O)c1ccc(C(=O)c2cc3c(ccc4ccccc43)[nH]2)cc1 [ACT-PFK-111, 4-(3H-Benzo[e]indole-2-carbonyl)-benzoic acid]
9 | 0.315 | Cc1ccc(C(=O)c2cc3c(ccc4ccccc43)[nH]2)cc1 [ACT-PFK-123, (3H-Benzo[e]indol-2-yl)-p-tolyl-methanone]

Tested on: Calu-6
Experiment: as above
Type: cell-based
Conditions: Homo sapiens, Calu-6
Description: as §1

Row | IC50 [µM] | SMILES
10 | 0.22 | COc1ccccc1C(=O)c1cc2c(ccc3ccccc32)[nH]1 [ACT-PFK-098, (3H-Benzo[e]indol-2-yl)-(2-methoxy-phenyl)-methanone]
11 | 64.5 | COc1cc(C(=O)c2cc3c(ccc4ccccc43)[nH]2)ccc1OCc1ccccc1 [ACT-PFK-109, (3H-Benzo[e]indol-2-yl)-(4-benzyloxy-3-methoxy-phenyl)-methanone]
12 | 57.5 | O=C(O)c1ccc(C(=O)c2cc3c(ccc4ccccc43)[nH]2)cc1 [ACT-PFK-111, 4-(3H-Benzo[e]indole-2-carbonyl)-benzoic acid]
13 | 0.079 | Cc1ccc(C(=O)c2cc3c(ccc4ccccc43)[nH]2)cc1 [ACT-PFK-123, (3H-Benzo[e]indol-2-yl)-p-tolyl-methanone]

Tested on: MDA-MB-231
Experiment: as above
Type: cell-based
Conditions: Homo sapiens
Description: as §1

Row | IC50 [µM] | SMILES
14 | > 100 | COc1cc(C(=O)c2cc3c(ccc4ccccc43)[nH]2)ccc1OCc1ccccc1 [ACT-PFK-109, (3H-Benzo[e]indol-2-yl)-(4-benzyloxy-3-methoxy-phenyl)-methanone]
15 | > 100 | O=C(O)c1ccc(C(=O)c2cc3c(ccc4ccccc43)[nH]2)cc1 [ACT-PFK-111, 4-(3H-Benzo[e]indole-2-carbonyl)-benzoic acid]

Tested on: Jurkat
Experiment: as above
Type: cell-based
Conditions: Homo sapiens, Jurkat
Description: as §1

Row | IC50 [µM] | SMILES
16 | 0.405 | COc1ccccc1C(=O)c1cc2c(ccc3ccccc32)[nH]1 [ACT-PFK-098, (3H-Benzo[e]indol-2-yl)-(2-methoxy-phenyl)-methanone]
17 | > 100 | COc1cc(C(=O)c2cc3c(ccc4ccccc43)[nH]2)ccc1OCc1ccccc1 [ACT-PFK-109, (3H-Benzo[e]indol-2-yl)-(4-benzyloxy-3-methoxy-phenyl)-methanone]
18 | > 100 | O=C(O)c1ccc(C(=O)c2cc3c(ccc4ccccc43)[nH]2)cc1 [ACT-PFK-111, 4-(3H-Benzo[e]indole-2-carbonyl)-benzoic acid]
19 | 0.1 | Cc1ccc(C(=O)c2cc3c(ccc4ccccc43)[nH]2)cc1 [ACT-PFK-123, (3H-Benzo[e]indol-2-yl)-p-tolyl-methanone]

Tested on: HCT-116
Experiment: as above
Type: cell-based
Conditions: Homo sapiens, HCT-116
Description: as §1

Row | IC50 [µM] | SMILES
20 | 0.49 | COc1ccccc1C(=O)c1cc2c(ccc3ccccc32)[nH]1 [ACT-PFK-098, (3H-Benzo[e]indol-2-yl)-(2-methoxy-phenyl)-methanone]
21 | > 100 | COc1cc(C(=O)c2cc3c(ccc4ccccc43)[nH]2)ccc1OCc1ccccc1 [ACT-PFK-109, (3H-Benzo[e]indol-2-yl)-(4-benzyloxy-3-methoxy-phenyl)-methanone]
22 | 63.5 | O=C(O)c1ccc(C(=O)c2cc3c(ccc4ccccc43)[nH]2)cc1 [ACT-PFK-111, 4-(3H-Benzo[e]indole-2-carbonyl)-benzoic acid]

Tested on: U937
Experiment: as above
Type: cell-based
Conditions: Homo sapiens, U-937
Description: as §1

Row | IC50 [µM] | SMILES
23 | 0.04 | COc1ccccc1C(=O)c1cc2c(ccc3ccccc32)[nH]1 [ACT-PFK-098, (3H-Benzo[e]indol-2-yl)-(2-methoxy-phenyl)-methanone]
24 | > 100 | COc1cc(C(=O)c2cc3c(ccc4ccccc43)[nH]2)ccc1OCc1ccccc1 [ACT-PFK-109, (3H-Benzo[e]indol-2-yl)-(4-benzyloxy-3-methoxy-phenyl)-methanone]
25 | 57.2 | O=C(O)c1ccc(C(=O)c2cc3c(ccc4ccccc43)[nH]2)cc1 [ACT-PFK-111, 4-(3H-Benzo[e]indole-2-carbonyl)-benzoic acid]

Tested on: not listed separately
Experiment: Solubility in solvents and excipients, 1 hour at room temperature, HPLC
Type: physicochemical
Conditions: aqueous with cosolvent or surfactant or cyclodextrin, thermodynamic from solid; Cre:EtOH:Saline 5:5:90 mixture, 1 hour at room temperature; read-out: Solubility Cre:EtOH:Saline
Description: Chemical properties of the compounds of the invention were investigated, including the solubility in several solvents and pharmaceutically accepted excipients. […] Briefly, selected compounds of the invention are dissolved in a small volume of the solvents/excipients of interest at room temperature over 1 hour in typically 1 ml and the concentration is measured by HPLC after filtration.

Row | solubility at 1 h [mg/mL] | SMILES
26 | 2.4 (≈ 7.96 mM) | COc1ccccc1C(=O)c1cc2c(ccc3ccccc32)[nH]1 [ACT-PFK-098, (3H-Benzo[e]indol-2-yl)-(2-methoxy-phenyl)-methanone]

Same assay, conditions: ethanol, organic solvent or mixture, thermodynamic from solid; EtOH, 1 hour at room temperature; read-out: Solubility EtOH

Row | solubility at 1 h [mg/mL] | SMILES
27 | 4.6 (≈ 15.3 mM) | COc1ccccc1C(=O)c1cc2c(ccc3ccccc32)[nH]1 [ACT-PFK-098, (3H-Benzo[e]indol-2-yl)-(2-methoxy-phenyl)-methanone]

Same assay, conditions: organic solvent or mixture, thermodynamic from solid; 1:1 cremophor EL-P:ethanol mixture, 1 hour at room temperature; read-out: Solubility Cre:EtOH

Row | solubility at 1 h [mg/mL] | SMILES
28 | 29 (≈ 96.2 mM) | COc1ccccc1C(=O)c1cc2c(ccc3ccccc32)[nH]1 [ACT-PFK-098, (3H-Benzo[e]indol-2-yl)-(2-methoxy-phenyl)-methanone]

Same assay, conditions: organic solvent or mixture, thermodynamic from solid; Acetone, 1 hour at room temperature; read-out: Solubility Acetone

Row | solubility at 1 h [mg/mL] | SMILES
29 | 9.3 (≈ 30.9 mM) | COc1ccccc1C(=O)c1cc2c(ccc3ccccc32)[nH]1 [ACT-PFK-098, (3H-Benzo[e]indol-2-yl)-(2-methoxy-phenyl)-methanone]

Same assay, conditions: organic solvent or mixture, thermodynamic from solid; Cremophor, 1 hour at room temperature; read-out: Solubility Cremophor

Row | solubility at 1 h [mg/mL] | SMILES
30 | 30.2 (≈ 100 mM) | COc1ccccc1C(=O)c1cc2c(ccc3ccccc32)[nH]1 [ACT-PFK-098, (3H-Benzo[e]indol-2-yl)-(2-methoxy-phenyl)-methanone]

Same assay, conditions: organic solvent or mixture, thermodynamic from solid; DCM, 1 hour at room temperature; read-out: Solubility DCM

Row | solubility at 1 h [mg/mL] | SMILES
31 | 10.4 (≈ 34.5 mM) | COc1ccccc1C(=O)c1cc2c(ccc3ccccc32)[nH]1 [ACT-PFK-098, (3H-Benzo[e]indol-2-yl)-(2-methoxy-phenyl)-methanone]

Same assay, conditions: organic solvent or mixture, thermodynamic from solid; Tween 80, 1 hour at room temperature; read-out: Solubility Tween 80

Row | solubility at 1 h [mg/mL] | SMILES
32 | 37 (≈ 123 mM) | COc1ccccc1C(=O)c1cc2c(ccc3ccccc32)[nH]1 [ACT-PFK-098, (3H-Benzo[e]indol-2-yl)-(2-methoxy-phenyl)-methanone]

Same assay, conditions: organic solvent or mixture, thermodynamic from solid; Tween80:EtOH 6:4 mixture, 1 hour at room temperature; read-out: Solubility Twee80:EtOH

Row | solubility at 1 h [mg/mL] | SMILES
33 | 32.8 (≈ 109 mM) | COc1ccccc1C(=O)c1cc2c(ccc3ccccc32)[nH]1 [ACT-PFK-098, (3H-Benzo[e]indol-2-yl)-(2-methoxy-phenyl)-methanone]
